Results reported in PMC6450895, “A fungal substrate mimicking molecule suppresses plant immunity via an inter-kingdom conserved motif” (Nature Communications, 2019).
“Also recorded” adds a separate entry of the source.

Tests used:
[1] = system: proteases of maize apoplastic fluid processing UmPit2; experiment: Effect of protease inhibitors on processing of UmPit2 in maize apoplastic fluid; format: biochemical; conditions: apoplastic fluid preincubated with inhibitor 10 min; 0, 15, 30 min
Experimental: Fig. 5 PLCPs cleave UmPit2 in the apoplast. a Input used to perform inhibitory test of Pit2 stability. Heterologous expressed UmPit2 and maize AF at different time points during the experiment. b Addition of E-64 stabilizes Pit2 degradation. Four inhibitors for main classes of proteases: E-64 for cysteine proteases, DCI for serine hydrolases, EDTA for metalloproteases and Pepstatin A for aspartic proteases were preincubated with maize AF for 10 min. Pit2 degradation was analyzed over time (0, 15 and 30 min) using SyproRuby staining. c Inhibition of cysteine proteases stabilizes Pit2 in the apoplast. Maize AF was coincubated with a mix of inhibitors containing DCI [10 µM], EDTA [1 mM] and Pepstatin A [10 µM] (Inh. Mix) with or without E-64 [10 µM]. As a control the noninhibitor sample containing DMSO is shown. d Fractionation of SA-treated apoplastic fluid by anion-exchange chromatography. […] F-24 was preincubated with 10 µM E-64 or DMSO followed by addition of purified UmPit2. Samples were incubated for 0, 15 and 30 min and analyzed by gel electrophoresis using SyproRuby. f UmPit2 is processed at similar rates as an endogenous maize substrate. UmPit2 as well as the endogenous maize PLCP substrate Prozip11 were heterologous expressed in E-coli. 3.2 µM proteins were coincubated with F-24 pretreated with inhibitor mix (Inh. mix) in the presence or absence of E-64. Processing of Prozip11 and UmPit2 has been monitored over time. Samples were analyzed by gel electrophoresis and stained with SyproRuby for visualization. As a control purified proteins as well as F-24 were loaded on gel (right gel). DMSO dimethyl sulfoxide, DCI 3,4-dichloroisocoumarin
(§1) Approximately 41 µg/ml heterologous expressed UmPit2 and UhPit2 proteins (concentration calculated with the previously described semi-quantitative approach based on SyproRuby) were incubated with or without apoplastic fluids (ca. 200 µg/ml) over time. Reaction was stopped by adding 2× SDS-gel loading buffer) and samples were analyzed by gel electrophoresis and SyproRuby staining (Invitrogen, Paisley, UK). Inhibition of apoplastic fluids containing specific inhibitors was performed as described in the main text. E-64 and pepstatin A were diluted in DMSO at a desired concentration. DCI was diluted in dimethyl formamide. All compounds have been purchased by Sigma-Aldrich (Taufkirchen, Germany). Stability experiments using F-24 were performed using ca. 1.4 µg/µl of the fraction and 3.2 µM of heterologous expressed UmPit2 or […].

[2] = system: F-24 (PLCP-enriched fraction of maize apoplastic fluid); experiment: Stability/processing in PLCP-enriched fraction F-24 (SDS gel, SyproRuby); format: in vitro ADME; conditions: F-24 preincubated with 50 µM / 10 µM E-64
Experimental: as §1

[3] = system: PLCPs of fractionated maize apoplastic fluid; experiment: PLCP activity of anion-exchange fractions, substrate Z-Phe-Arg-AMC; format: biochemical
Experimental: Fig. 5 PLCPs cleave UmPit2 in the apoplast. a Input used to perform inhibitory test of Pit2 stability. Heterologous expressed UmPit2 and maize AF at different time points during the experiment. b Addition of E-64 stabilizes Pit2 degradation. Four inhibitors for main classes of proteases: E-64 for cysteine proteases, DCI for serine hydrolases, EDTA for metalloproteases and Pepstatin A for aspartic proteases were preincubated with maize AF for 10 min. Pit2 degradation was analyzed over time (0, 15 and 30 min) using SyproRuby staining. c Inhibition of cysteine proteases stabilizes Pit2 in the apoplast. […] Samples were incubated for 0, 15 and 30 min and analyzed by gel electrophoresis using SyproRuby. f UmPit2 is processed at similar rates as an endogenous maize substrate. […] Processing of Prozip11 and UmPit2 has been monitored over time. Samples were analyzed by gel electrophoresis and stained with SyproRuby for visualization. […]
Activity of PLCPs present in isolated apoplastic fluids was monitored using 10 µM final concentration of the fluorogenic substrate Z-Phe-Arg-7-amido-4-methylcoumarin (Sigma-Aldrich, Taufkirchen, Germany). AMC released (RFU) over time was monitored at 460 nm using a Tecan Infinite M200 PRO plate reader (Tecan Group Ltd., Männedorf, Switzerland). […] The inhibitor control was used to normalize all measurements and obtain a read-out for specific PLCP activity. […]

[4] = system: apoplastic PLCPs of barley; experiment: Apoplastic PLCP activity in SA-treated barley; format: in vivo; conditions: Supplementary Fig. 9

| Compound | effect on processing of UmPit2 in maize apoplastic fluid (in words) [1] | effect of E-64 on processing by F-24 (in words) [2] | PLCP activity of fractions with inhibitor (in words) [3] | induction of apoplastic PLCPs by SA (in words) [4] |
| --- | --- | --- | --- | --- |
| O=C(O)CN(CCN(CC(=O)O)CC(=O)O)CC(=O)O [EDTA] | Processing of UmPit2 was observed gradually |  |  |  |
| O=c1oc(Cl)c(Cl)c2ccccc12 [DCI, 3,4-dichloroisocoumarin] | Processing of UmPit2 was observed gradually |  |  |  |
| CC(C)C[C@H](NC(=O)[C@H]1O[C@@H]1C(=O)O)C(=O)NCCCCN=C(N)N [E-64] | E-64 stabilizes UmPit2 | stabilized in the fraction preincubated with E-64; also recorded: stabilization of Prozip1 and UmPit2 | did not show any activity |  |
| O=C(O)c1ccccc1O [SA, salicylic acid] |  |  |  | not found in barley |
| pepstatin-A | Processing of UmPit2 was observed gradually |  |  |  |
